System: tumor growth and metastasis
Assay: dietary L-fucose supplementation in mouse tumor models
Assay type: in vivo
Text: Global fucosylation is reduced during progression in human melanomas (UEA1 fucose-binding lectin staining analysis of tumor microarray (TMA; n=˜300 patients)) via an ATF2-mediated transcriptional repression of fucokinase (FUK). However, AR transcriptionally upregulates Fucosyltransferase 4 (FUT4) expression via binding to the ARE motif in FUT4 promoter (FIG. 3). Additionally, the global tumor fucosylation is more pronounced in males relative to females (FIG. 4). […] Furthermore, the AR-FUT4 axis facilitates melanoma invasion via disrupting N-Cadherin/catenin junction complexes (FIG. 6). […] Thus, FUT4 is required for androgen-stimulated melanoma cell viability and motility (FIG. 7).

C[C@H](O)[C@@H](O)[C@@H](O)[C@H](O)C=O [L-fucose]
block of tumor growth and metastasis: > 50%
